Several values for one entry are separate records, joined by “and”; a condition that tells them apart may be missing. Equal values may be shown once.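 Exposure lasted 48 hours, with cells grown in 96-well plates and compounds tested at five concentrations. GI50: concentration for 50% inhibition of growth. The concentration for full growth arrest is given as TGI.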
What was measured:
Assay in all cases: growth of human tumour cells (NCI), 48 h
[1] = tested on: T-47D breast
[2] = tested on: SW-620 colon
[3] = tested on: SK-MEL-2 melanoma
[4] = tested on: HCT-15 colon
[5] = tested on: 786-0 renal
[6] = tested on: DU-145 prostate
[7] = tested on: BT-549 breast
[8] = tested on: NCI-H522 lung
[9] = tested on: SK-MEL-5 melanoma
[10] = tested on: NCI-H23 lung

COC(=O)/C=C1/SC(N2N=C(c3cccs3)CC2c2ccc(F)cc2)=NC1=O (stereo not given)
GI50 [1]: 3.27 µM | TGI [1]: 8.31 µM | GI50 [2]: 2.16 µM | TGI [2]: 5 µM | GI50 [3]: 4.04 µM | TGI [3]: 15.6 µM | GI50 [4]: 1.95 µM | TGI [4]: 4.44 µM | GI50 [5]: 3.12 µM | TGI [5]: 8.61 µM | GI50 [6]: 2.12 µM | TGI [6]: 4.75 µM | GI50 [7]: 3.21 µM | TGI [7]: 8.09 µM | GI50 [8]: 2.15 µM | TGI [8]: 4.79 µM | GI50 [9]: 1.78 µM | TGI [9]: 3.36 µM | GI50 [10]: 2.33 µM | TGI [10]: 5.82 µM

CCOC(=O)c1oc2ccc([N+](=O)[O-])c3c2c1CCC3
TGI [1]: > 31.6 µM | TGI [2]: > 100 µM | TGI [3]: > 100 µM | TGI [4]: > 100 µM | TGI [5]: 84.9 µM | TGI [6]: > 100 µM | TGI [7]: > 93 µM | TGI [8]: > 85.2 µM | TGI [9]: > 100 µM | TGI [10]: > 100 µM

C[n+]1c(-c2ccc(/C=N/NC(=O)c3ccc(C(=O)N/N=C/c4ccc(-c5cn6ccccc6[n+]5C)cc4)cc3)cc2)cn2ccccc21
GI50 [1]: 372 µM | TGI [1]: 928 µM | GI50 [2]: > 1000 µM | TGI [2]: > 1000 µM | GI50 [3]: 270 µM | TGI [3]: 498 µM | GI50 [4]: > 1000 µM | TGI [4]: > 1000 µM | GI50 [5]: 126 µM | TGI [5]: 53.7 µM and 252 µM | GI50 [6]: 206 µM | TGI [6]: 698 µM | GI50 [7]: 874 µM | TGI [7]: > 1000 µM | GI50 [8]: 186 µM | TGI [8]: 326 µM | GI50 [9]: 155 µM | TGI [9]: > 94.9 µM and 634 µM | GI50 [10]: 297 µM | TGI [10]: 717 µM

CN1CCN(Cc2ccc(NC(=O)c3cncc(C#Cc4cncc5nccnc45)c3)cc2C(F)(F)F)CC1
GI50 [1]: 5.61 µM | TGI [1]: 14.9 µM | GI50 [2]: 0.878 µM | TGI [2]: 7.7 µM | GI50 [3]: 0.915 µM | TGI [3]: 2.7 µM | GI50 [4]: 2.51 µM | TGI [4]: 12.9 µM | GI50 [5]: 5.31 µM | TGI [5]: 12.5 µM | GI50 [6]: 3.22 µM | TGI [6]: 9.6 µM | GI50 [7]: 5.27 µM | TGI [7]: 11.2 µM | GI50 [8]: 3.17 µM | TGI [8]: 10.8 µM | GI50 [9]: 2.61 µM | TGI [9]: 8.63 µM | GI50 [10]: 2.16 µM | TGI [10]: 11 µM

Cn1c2ccccc2c2c3[nH][nH]c(=O)c3c3c4ccccc4[nH]c3c21
GI50 [1]: 2.05 µM | TGI [1]: 13.4 µM | GI50 [2]: 2.4 µM | TGI [2]: 14.3 µM | GI50 [3]: 1.77 µM | TGI [3]: 5.78 µM | GI50 [4]: 2.47 µM | TGI [4]: 35.7 µM | GI50 [5]: 3.06 µM | TGI [5]: 31.6 µM | GI50 [6]: 2.45 µM | TGI [6]: 29.1 µM | GI50 [7]: 1.59 µM | TGI [7]: 5.3 µM | GI50 [8]: 1.56 µM | TGI [8]: 10.4 µM | GI50 [9]: 1.37 µM | TGI [9]: 5.04 µM | GI50 [10]: 1.85 µM | TGI [10]: 8.37 µM

COc1c(-c2ccc(O)c(O)c2)oc2c(O)c(O)cc(O)c2c1=O
TGI [1]: > 100 µM | TGI [2]: 43.9 µM | TGI [3]: > 100 µM | TGI [4]: > 100 µM | TGI [5]: > 100 µM | TGI [6]: > 100 µM | TGI [7]: > 100 µM | TGI [8]: > 100 µM | TGI [9]: > 100 µM | TGI [10]: > 100 µM

Cc1ccc(C(SCC(N)C(=O)O)(c2ccccc2)c2ccccc2)cc1 (stereo not given)
GI50 [1]: 0.123 µM | TGI [1]: > 77.7 µM | GI50 [2]: 0.0437 µM | TGI [2]: > 69.8 µM | GI50 [3]: 2.75 µM | TGI [3]: 98 µM | GI50 [4]: 0.218 µM | TGI [4]: > 49.4 µM | GI50 [5]: 0.175 µM | TGI [5]: 2.43 µM | GI50 [6]: 0.181 µM | TGI [6]: 0.466 µM | GI50 [7]: 0.145 µM | TGI [7]: > 69.7 µM | GI50 [8]: 0.0403 µM | TGI [8]: 85.1 µM | GI50 [9]: 0.0452 µM | TGI [9]: 19.6 µM | GI50 [10]: 0.236 µM | TGI [10]: > 96 µM

N=C(N)c1ccc(NCCOCCNc2ccc(C(=N)N)cc2)cc1
GI50 [1]: 7.17 µM | TGI [1]: 75.6 µM | GI50 [2]: 63.6 µM | TGI [2]: > 100 µM | GI50 [3]: 51.6 µM | TGI [3]: > 100 µM | GI50 [4]: 30.2 µM | TGI [4]: > 100 µM | GI50 [5]: > 100 µM | TGI [5]: > 100 µM | GI50 [6]: 27.4 µM | TGI [6]: > 100 µM | GI50 [7]: 34.9 µM | TGI [7]: > 100 µM | GI50 [8]: 29.8 µM | TGI [8]: > 100 µM | GI50 [9]: 25.5 µM | TGI [9]: 89.4 µM | GI50 [10]: 6.91 µM | TGI [10]: > 100 µM

Cc1cc2nc3cc(C)c(N)cc3[n+](-c3ccccc3)c2cc1N
GI50 [1]: 1.8 µM | TGI [1]: 19.9 µM | GI50 [2]: 5.62 µM | TGI [2]: > 45.2 µM | GI50 [3]: 6.74 µM | TGI [3]: 47.1 µM | GI50 [4]: > 100 µM | TGI [4]: > 100 µM | GI50 [5]: 6.26 µM | TGI [5]: > 100 µM | GI50 [6]: 7.89 µM | TGI [6]: > 100 µM | GI50 [7]: 2.64 µM | TGI [7]: 18.8 µM | GI50 [8]: 3.73 µM | TGI [8]: > 41 µM | GI50 [9]: 0.773 µM | TGI [9]: 5.4 µM | GI50 [10]: 2.77 µM | TGI [10]: > 63.5 µM

NC(N)=Nc1nc2ccc([N+](=O)[O-])cc2[nH]1
TGI [1]: > 100 µM | TGI [2]: > 100 µM | TGI [3]: > 100 µM | TGI [4]: > 100 µM | TGI [5]: > 100 µM | TGI [6]: > 100 µM | TGI [7]: > 100 µM | TGI [8]: > 100 µM | TGI [9]: > 100 µM | TGI [10]: > 100 µM

C/C(=N\NC(=S)N1CC2CCC(CC2)C1)c1cccc(C)n1
TGI [1]: 20.6 µM | GI50 [2]: 0.383 µM | TGI [2]: 31.8 µM | TGI [3]: 21.4 µM | GI50 [4]: 0.307 µM | TGI [4]: 17.4 µM | TGI [5]: 11.7 µM | GI50 [6]: 0.378 µM | TGI [6]: 7.1 µM | TGI [7]: 10.3 µM | GI50 [8]: 0.232 µM | TGI [8]: 0.343 µM and 1.5 µM | GI50 [9]: 0.287 µM | TGI [9]: 13.7 µM | TGI [10]: 19.4 µM

CCC(=O)Nc1ccccc1C#C/C=C\C#Cc1ccccc1C(F)(F)F
GI50 [1]: 6.04 µM | TGI [1]: > 38.9 µM | GI50 [2]: 1.73 µM | TGI [2]: > 24.4 µM | GI50 [3]: 0.631 µM | TGI [3]: > 11.1 µM | GI50 [4]: 3.9 µM | TGI [4]: > 50 µM | GI50 [5]: 2.37 µM | TGI [5]: 23.2 µM | GI50 [6]: 2.28 µM | TGI [6]: 22.3 µM | GI50 [7]: 2.21 µM | TGI [7]: 32.5 µM | GI50 [8]: 1.33 µM | TGI [8]: 6.09 µM | GI50 [9]: 5.44 µM | TGI [9]: 18.1 µM | GI50 [10]: 5.27 µM | TGI [10]: > 50 µM

C=C(CC(=O)O)C(=O)O (tested in a mixture with another compound)
GI50 [1]: > 50 µg/mL | TGI [1]: > 50 µg/mL | GI50 [2]: > 50 µg/mL | TGI [2]: > 50 µg/mL | GI50 [3]: > 50 µg/mL | TGI [3]: > 50 µg/mL | GI50 [4]: > 50 µg/mL | TGI [4]: > 50 µg/mL | GI50 [5]: > 50 µg/mL | TGI [5]: > 50 µg/mL | GI50 [6]: > 50 µg/mL | TGI [6]: > 50 µg/mL | GI50 [7]: > 50 µg/mL | TGI [7]: > 50 µg/mL | GI50 [8]: > 50 µg/mL | TGI [8]: > 50 µg/mL | GI50 [9]: > 50 µg/mL | TGI [9]: > 50 µg/mL | GI50 [10]: > 50 µg/mL | TGI [10]: > 50 µg/mL

O=c1c(NO)c([N+](=O)[O-])cnn1-c1ccccc1
TGI [1]: 3.79 µM | TGI [2]: 3.73 µM | TGI [3]: 31.4 µM | TGI [4]: 11.6 µM | TGI [5]: 12.7 µM | TGI [6]: 27.6 µM | TGI [7]: 2.93 µM | TGI [8]: 4.86 µM | TGI [9]: 12.4 µM | TGI [10]: 13.2 µM
